Test results: PubChem BioAssay (NCI)
Values joined by “and” are separate entries in the source; they are usually repeats but may differ in a detail not shown here. Identical values can stand only once.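 Assay format: 96-well plates, 48-hour exposure. Abbreviation: GI50, concentration required for 50% inhibition of growth. TGI: concentration producing complete growth inhibition.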

Tests used:
Test in all cases: NCI-60 cell line screen, 48 h
[1] = system: K-562 leukemia
[2] = system: SF-539 CNS
[3] = system: OVCAR-4 ovarian
[4] = system: HS 578T breast
[5] = system: U251 CNS
[6] = system: HOP-92 NSCLC
[7] = system: MDA-MB-231 breast
[8] = system: HCT-15 colon
[9] = system: OVCAR-8 ovarian
[10] = system: NCI-H460 lung
[11] = system: UACC-257 melanoma
[12] = system: SK-MEL-28 melanoma
[13] = system: BT-549 breast
[14] = system: UACC-62 melanoma
[15] = system: SW-620 colon
[16] = system: NCI-H226 lung
[17] = system: MOLT-4 leukemia
[18] = system: M14 melanoma
[19] = system: CAKI-1 renal
[20] = system: A498 renal
[21] = system: DU-145 prostate
[22] = system: RXF 393 renal
[23] = system: MCF7 breast
[24] = system: NCI-H522 lung
[25] = system: SK-MEL-2 melanoma
[26] = system: NCI-H23 lung
[27] = system: SK-MEL-5 melanoma
[28] = system: SN12C renal
[29] = system: KM12 colon
[30] = system: HT29 colon
[31] = system: OVCAR-5 ovarian
[32] = system: NCI/ADR-RES ovarian
[33] = system: SF-295 CNS
[34] = system: UO-31 renal
[35] = system: SF-268 CNS
[36] = system: MALME-3M melanoma
[37] = system: OVCAR-3 ovarian
[38] = system: CCRF-CEM leukemia
[39] = system: LOX IMVI melanoma
[40] = system: HCT-116 colon
[41] = system: RPMI-8226 leukemia
[42] = system: HOP-62 NSCLC
[43] = system: SNB-75 CNS
[44] = system: EKVX NSCLC
[45] = system: TK-10 renal
[46] = system: MDA-MB-435
[47] = system: SR leukemia
[48] = system: IGROV1 ovarian
[49] = system: 786-0 renal
[50] = system: A549 NSCLC
[51] = system: HL-60(TB) leukemia
[52] = system: HCC-2998 colon
[53] = system: ACHN renal
[54] = system: SNB-19 CNS
[55] = system: SK-OV-3 ovarian
[56] = system: PC-3 prostate
[57] = system: COLO 205 colon
[58] = system: T-47D breast

NS(=O)(=O)c1ccc(N=Cc2c(O)[nH]c3ccc4ncsc4c23)cc1
GI50 [1]: 1.27 µM and 2.19 µM
TGI [1]: > 25 µM
GI50 [2]: 0.626 µM and 1.08 µM
TGI [2]: 2 µM and 4.91 µM
GI50 [3]: 0.821 µM and 1.87 µM
TGI [3]: 2.92 µM and 16.1 µM
GI50 [4]: 0.783 µM and 1.04 µM
TGI [4]: > 7.17 µM
GI50 [5]: 0.715 µM and 1.63 µM
TGI [5]: > 8.07 µM
GI50 [6]: 1.72 µM
TGI [6]: > 7.33 µM
GI50 [7]: 1.06 µM and 5.66 µM
TGI [7]: > 25 µM
GI50 [8]: 7.16 µM and 7.13 µM
TGI [8]: > 25 µM and 24.5 µM
GI50 [9]: 0.75 µM and 1.73 µM
TGI [9]: > 25 µM
GI50 [10]: 0.764 µM and 5.92 µM
TGI [10]: > 25 µM
GI50 [11]: 3.11 µM and 6.09 µM
TGI [11]: 19 µM and 16.6 µM
GI50 [12]: 0.858 µM and 2.49 µM
TGI [12]: 2.55 µM and 10.9 µM
GI50 [13]: 0.693 µM and 2.34 µM
TGI [13]: 2.06 µM and 9.04 µM
GI50 [14]: 1.05 µM and 3.67 µM
TGI [14]: 4.71 µM and 9.09 µM
GI50 [15]: 0.891 µM and 1.8 µM
TGI [15]: > 21.9 µM
GI50 [16]: 0.931 µM and 2.94 µM
TGI [16]: 6.26 µM and 15.5 µM
GI50 [17]: 0.476 µM and 0.886 µM
TGI [17]: 1.57 µM and 4.26 µM
GI50 [18]: 2.08 µM and 4.14 µM
TGI [18]: 6.99 µM and 9.39 µM
GI50 [19]: 5.85 µM and 6.52 µM
TGI [19]: > 25 µM
GI50 [20]: 3.69 µM and 6.71 µM
TGI [20]: 9.95 µM and 14.7 µM
GI50 [21]: 0.394 µM and 3.03 µM
TGI [21]: > 25 µM
GI50 [22]: 0.856 µM and 2.12 µM
TGI [22]: 2.47 µM and 7.85 µM
GI50 [23]: 0.755 µM and 1.77 µM
TGI [23]: > 24 µM
GI50 [24]: 0.508 µM and 0.532 µM
TGI [24]: 1.58 µM and 1.88 µM
GI50 [25]: 0.644 µM and 1.15 µM
TGI [25]: 1.36 µM and 3.07 µM
GI50 [26]: 1.11 µM and 3.98 µM
TGI [26]: 7.24 µM and 15.7 µM
GI50 [27]: 1.04 µM and 2.74 µM
TGI [27]: > 10.5 µM and 15.3 µM
GI50 [28]: 0.982 µM and 3.21 µM
TGI [28]: > 25 µM
GI50 [29]: 0.566 µM and 1.97 µM
TGI [29]: 8.58 µM and 18.4 µM
GI50 [30]: 3.5 µM and 8.16 µM
TGI [30]: > 25 µM
GI50 [31]: 2.91 µM and 7.56 µM
TGI [31]: > 25 µM
GI50 [32]: 3.5 µM and 5.42 µM
TGI [32]: > 25 µM
GI50 [33]: 4.02 µM and 7.28 µM
TGI [33]: > 23.2 µM
GI50 [34]: 4.51 µM and 6.2 µM
TGI [34]: > 21.3 µM
GI50 [35]: 0.678 µM and 0.792 µM
TGI [35]: 2.28 µM and 2.72 µM
GI50 [36]: 1.44 µM and 2.27 µM
TGI [36]: 10.7 µM and > 19 µM
GI50 [37]: 0.189 µM and 0.756 µM
TGI [37]: > 6.36 µM and 3.42 µM
GI50 [38]: 0.793 µM and 0.699 µM
TGI [38]: > 25 µM
GI50 [39]: 0.85 µM and 2.13 µM
TGI [39]: > 25 µM
GI50 [40]: 0.845 µM and 1.78 µM
TGI [40]: > 25 µM
GI50 [41]: 5.6 µM and 7.17 µM
TGI [41]: > 21.2 µM
GI50 [42]: 0.887 µM and 3.49 µM
TGI [42]: 4.17 µM and 15.1 µM
GI50 [43]: 0.857 µM and 3.64 µM
TGI [43]: 2.61 µM and 10 µM
GI50 [44]: 7.91 µM and 8.52 µM
TGI [44]: > 25 µM
GI50 [45]: 4.2 µM and 7.65 µM
TGI [45]: 17.1 µM and 19.1 µM
GI50 [46]: 2.44 µM and 3.76 µM
TGI [46]: > 19.5 µM and 18.4 µM
GI50 [47]: 0.213 µM and 0.518 µM
TGI [47]: > 5.71 µM and 2.11 µM
GI50 [48]: 6.53 µM and 8.83 µM
TGI [48]: > 25 µM
GI50 [49]: 1.02 µM and 3.67 µM
TGI [49]: > 25 µM and 18.8 µM
GI50 [50]: 5.02 µM and 9.11 µM
TGI [50]: > 25 µM
GI50 [51]: 1.57 µM and 1.93 µM
TGI [51]: 4.1 µM and 4.79 µM
GI50 [52]: 0.751 µM and 1.41 µM
TGI [52]: 3.87 µM and 7.05 µM
GI50 [53]: 2.2 µM and 5.31 µM
TGI [53]: > 25 µM
GI50 [54]: 0.885 µM and 2.16 µM
TGI [54]: > 25 µM
GI50 [55]: 3.84 µM and 9.75 µM
TGI [55]: > 25 µM
GI50 [56]: 3.1 µM and 2.08 µM
TGI [56]: > 22.9 µM
GI50 [57]: 1.36 µM and 3.84 µM
TGI [57]: 5.03 µM and 9.19 µM
GI50 [58]: 0.781 µM and 2.36 µM
TGI [58]: 2.16 µM and > 20 µM

N#C/C(=C\c1cn(Cc2ccccc2)c2ccccc12)C(=O)Nc1ncc(Cc2ccccc2Cl)s1
GI50 [1]: 3.03 µM
TGI [1]: > 100 µM
GI50 [2]: 1.68 µM
TGI [2]: 3.42 µM
GI50 [3]: 0.393 µM
TGI [3]: 1.61 µM
GI50 [4]: 1.93 µM
TGI [4]: 7.08 µM
GI50 [5]: 1.36 µM
TGI [5]: 2.92 µM
GI50 [6]: 1.88 µM
TGI [6]: 6 µM
GI50 [7]: 1.93 µM
TGI [7]: 4.79 µM
GI50 [8]: 2.83 µM
TGI [8]: > 100 µM
GI50 [9]: 1.35 µM
TGI [9]: 3.13 µM
GI50 [10]: 0.53 µM
TGI [10]: 1.99 µM
GI50 [11]: 3.3 µM
TGI [11]: > 100 µM
GI50 [12]: 2.36 µM
TGI [12]: 6.74 µM
GI50 [13]: 2.94 µM
TGI [13]: 11.6 µM
GI50 [14]: 1.52 µM
TGI [14]: 3.16 µM
GI50 [15]: 1.52 µM
TGI [15]: 4.2 µM
GI50 [16]: 1.7 µM
TGI [16]: 5.67 µM
GI50 [17]: 2.49 µM
TGI [17]: > 100 µM
GI50 [18]: 2.52 µM
TGI [18]: 10.4 µM
GI50 [19]: 1.43 µM
TGI [19]: 3.75 µM
GI50 [20]: 1.08 µM
TGI [20]: 2.87 µM
GI50 [21]: 2.75 µM
TGI [21]: > 100 µM
GI50 [22]: 2.27 µM
TGI [22]: 6.14 µM
GI50 [23]: 3.01 µM
TGI [23]: > 100 µM
GI50 [24]: 1.8 µM
TGI [24]: 6.36 µM
GI50 [25]: 2.05 µM
TGI [25]: 4.85 µM
GI50 [26]: 1.71 µM
TGI [26]: 4.08 µM
GI50 [27]: 2.62 µM
TGI [27]: 7.08 µM
GI50 [28]: 1.57 µM
TGI [28]: 3.88 µM
GI50 [29]: 1.89 µM
TGI [29]: 6.62 µM
GI50 [30]: 2.66 µM
TGI [30]: > 100 µM
GI50 [31]: 1.7 µM
TGI [31]: 4.59 µM
GI50 [32]: 2.68 µM
TGI [32]: 13.3 µM
GI50 [33]: 2.36 µM
TGI [33]: 6.87 µM
GI50 [34]: 1.46 µM
TGI [34]: 3.18 µM
GI50 [35]: 2.79 µM
TGI [35]: 23.4 µM
GI50 [36]: 1.78 µM
TGI [36]: 4.14 µM
GI50 [37]: 1.56 µM
TGI [37]: 3.62 µM
GI50 [38]: 2.51 µM
TGI [38]: > 100 µM
GI50 [39]: 4.61 µM
TGI [39]: 48.8 µM
GI50 [40]: 1.27 µM
TGI [40]: 3.89 µM
GI50 [41]: 3.23 µM
TGI [41]: > 100 µM
GI50 [42]: 2.52 µM
TGI [42]: 10.4 µM
GI50 [43]: 1.5 µM
TGI [43]: 4.54 µM
GI50 [44]: 2.82 µM
TGI [44]: 12.7 µM
GI50 [45]: 1.93 µM
TGI [45]: 4.2 µM
GI50 [46]: 1.79 µM
TGI [46]: 4.72 µM
GI50 [47]: 1.11 µM
TGI [47]: 3.58 µM
GI50 [48]: 1.93 µM
TGI [48]: 5.57 µM
GI50 [49]: 1.51 µM
TGI [49]: 3.11 µM
GI50 [50]: 1.79 µM
TGI [50]: 6.02 µM
GI50 [51]: > 100 µM
TGI [51]: > 100 µM
GI50 [52]: 3.23 µM
TGI [52]: > 100 µM
GI50 [53]: 0.823 µM
TGI [53]: 2.14 µM
GI50 [54]: 3.07 µM
TGI [54]: 17.8 µM
GI50 [55]: 1.8 µM
TGI [55]: 4.66 µM
GI50 [56]: 2.01 µM
TGI [56]: 7.48 µM
GI50 [57]: 1.14 µM
TGI [57]: 2.81 µM
GI50 [58]: 1.69 µM
TGI [58]: 4.15 µM
